Results taken from US20260115177A1, “MEDICINAL PRODUCTS AND METHODS FOR THE ALLEVIATION OF CANCER IMMUNOTHERA-PY-ASSOCIATED CYTOKINE RELEASE SYNDROME” (POOLBEG PHARMA (UK) LIMITED, priority 2023, published 2026).

Tests used:
HUVEC endothelial cells [1] = test: IL-6 and IL-8 ELISA of HUVEC endothelial cells treated with sCAR; format: cell-based, human; details: sCAR stimulation, 24 hours; concentrations of Table 2
Procedure: (§1) In like manner and also in Example 3 below, sCAR (or smCAR) is added to endothelial (HUVEC) cells, available from the American Type Culture Collection, and using an equivalent protocol to the treatment of THP-1 cells (but with individually optimised conditions, such as the concentration of sCAR used), following which IL-6 release and IL-8 release are observed. Pro-inflammatory cytokines IL-6 and IL-8 are measured using an enzyme-linked immunosorbent assay (ELISA) and IL-6, ICAM1 and VCAM1 are measured by quantitative PCR (QPCR, for which a kit is suitably obtainable from Thermo Fisher Scientific of Kingfisher Dr, Swindon SN3 5BZ, UK).
(§2) sCAR (or smCAR), produced as described in Example 1 above, is added to a monoculture of HUVEC endothelial cells in the presence of UR-13870, Ralimetinib or Acumapimod at each of the concentrations shown in Table 2 above, at 37° C., 5% CO2 and a suitably humid environment for 24 hours.
Supernatant levels of IL-6 and IL-8 from the HUVEC endothelial cell monoculture with sCAR (or smCAR) are determined by ELISA.

HUVEC endothelial cells [2] = test: QPCR of VCAM1, ICAM1 and IL-6 in HUVEC cells treated with sCAR; format: cell-based, human; details: 24 hours
Procedure: as §1, §2

HUVEC endothelial cells [3] = test: IL-6 and IL-8 ELISA of HUVEC cells treated with sCART-mono supernatant; format: cell-based, human; details: 24 hr, concentrations of Table 2
Procedure: With reference to FIG. 13 of the accompanying drawings, a co-culture (100) is established using a standard cell culture transwell dish, including a first compartment (101), containing CAR T cells and cancer cells (at a 1:1 ratio), which is separated from a second compartment (102), containing monocytes, by a semi-permeable membrane (103) composed of tissue-culture treated polyethylene terephthalate with a 0.4 μm pore size.
Each of UR-13870, Acumapimod and Ralimetinib are administered to the co-culture following a procedure analogous to that described in Example 2 above (at the concentrations as shown in Table 2 above).
The co-culture is incubated at 37° C., 5% CO2 and a suitably humid environment for 24 hours. On completion, the transwell insert is removed and supernatant is isolated. Cells and debris are removed from the supernatant by exposing the container to a centripetal force of 400 G and gently pipetting the supernatant into a new container without disturbing the cell pellet at the bottom of the previous container.
Prior to adding the p38 inhibitors and sCART-mono, endothelial cells are incubated overnight at 37° C. and 5% CO2 in a suitably humid environment to allow the cells to adhere fully to the tissue culture dish.
Supernatant levels of IL-6 and IL-8 are determined following 24 hr treatment with sCART-mono and the p38 MAPK inhibitors by ELISA.

[4] = test system: PBMC-humanized NSG-MHC I/II double knock-out mice with Raji-Luc CD19-expressing cancer cells; test: In vivo (murine) model using CAR T for CRS induction; parameters: species or system mouse
Procedure: An outline of the timeline of the model is provided in FIG. 16; it commences on Study Day −5 and ends on Study Day 10.
Thus, on Study Day −5, 30 female 6- to 8-week-old NSG-(KbDb)null (IA)null mice are irradiated at 100 cGy. 4 hours later, on the same day (Study Day −5) they are each injected, via tail vein, with 0.25×10^6 Raji-Luc CD19-expressing cancer cells (a Raji wild-type cell line with stable and high expression of luciferase, enabling detection of cancer burden by […]).
On Study Day −2, clinical observation commences for all 30 mice (including body weight monitoring) and all 30 mice are imaged using in vivo […] imaging (IVIS). For IVIS, mice are intraperitoneally injected with 150 mg/kg D-Luciferin. 10 minutes after the D-Luciferin injection, mice are imaged dorsally and ventrally (auto exposure) using an IVIS Lumina system (obtainable from PerkinElmer of Chalfont Road, Seer Green, Beaconsfield, HP9 2FX, UK). Region of interest (ROI) are drawn for each mouse to capture its whole body, and total flux (p/s) is reported. IVIS imaging of all 30 mice continues on a biweekly basis throughout the study, thereby monitoring cancer cell burden. Daily clinical observation continues throughout the study, including observation of CRS, CRS being scored as follows:
25 of the mice are injected intraperitoneally, on Study Day 0, with 5×10^6 anti-CD19 CAR T cells in phosphate-buffered saline.
As a control, a group consisting of 5 of the mice (“Group 1”) are not administered CAR T cells. Beginning on Study Day −1 and ending on Study Day 9, Group 1 receive treatment with 0.5% (w:v) HPMC, 0.1% (w:v) Tween 80 in sWFI (vehicle/control), administered BID at 5 mL/kg.
The 25 mice administered CAR T cells are divided into groups of 5 mice per group. […]

OCCCn1cc2c(-c3ccc(F)cc3)c(-c3ccncc3)c(-c3ccc(F)cc3)nc2n1 [UR-13870, 6-bis(4-fluorophenyl)-5-(4-pyridinyl)-2Hpyrazolo[3,4-b]pyridine-2-propanol]
IL-6 secretion by HUVEC cells (HUVEC endothelial cells [1]): significantly reduce | IL-8 supernatant level, HUVEC cells (HUVEC endothelial cells [1]): reduced | ICAM1 mRNA levels (HUVEC endothelial cells [2]): significantly reduce | IL-6 mRNA levels (HUVEC endothelial cells [2]): significantly reduce | VCAM1 mRNA levels (HUVEC endothelial cells [2]): reduced, albeit non-significantly | IL-6 levels in supernatant (HUVEC endothelial cells [3]): reduced | IL-8 levels in supernatant (HUVEC endothelial cells [3]): (albeit non-significant) downward trend | CAR T cell expansion (flow cytometry) ([4]; blood, Study Days 2, 6 and 10): successfully maintained | CAR T cell therapy efficacy, tumour burden (IVIS) ([4]; day 7 and day 9, UR-13870 2, 10, 25 mg/kg BID s.c., Humira 5 mg/kg i.p. once): remained efficacious | number of CAR T cells in circulation ([4]; day 10, high dose (25 mg/kg BID)): significantly enhanced
